Several values for one entry are separate records, joined by “and”; a condition that tells them apart may be missing. Identical values can stand only once. Like-named read-outs stand apart in the source and are kept apart here.
Experiments:
[1] = Cytotoxicity assay (MTT), normal murine spleen cells stimulated with concanavalin A; type: cell-based; conditions: normal mouse spleen stimulated with concanavalin A inhibited by 50%, read-out: Mean CC50 (Normal Mouse Spleen) ± SEM (no. of expts)
Procedure: (§1) Normal murine spleen cells were washed in HBSS, cultured at 2.5×10^6 or 5×10^6 cells per mL in RPMI 1640 (with Hepes) complete medium with 2 mM-L-glutamine, 1 mM sodium pyruvate, 0.05 mM β-mercaptoethanol, penicillin, streptomycin, and amphotericin B with 10% fetal calf serum and Concanavalin A (ConA) at 2.5 μg/mL in a 96-well microtiter plate. A range of diluted analogs were added to triplicate culture wells and the cells were incubated at 37° C. in 5% CO2. Wells containing cells, media and ConA were used as controls. Forty-eight hours post incubation, 20 μL of the vital dye MTT (3-[4,5-Dimethylthiazol-2-yl]-2,5-diphenyltetrazolium bromide; thiazolyl blue) at 5 mg/mL was added to each well and the cultures re-incubated for 4-6 hours. Following centrifugation, the supernatants were decanted and the stained cells were resuspended in 100 μL of 0.4% HCl acidified isopropanol. The optical densities of each well were read at 600 nm using a Cambridge Technologies series 700 microplate reader. The human lymphocytic cell lines CCRF-CEM (ATCC: HTB 176) and H-9 (ATCC: CCL 119) were subcultured from recently cultured cells grown in complete RPMI 1640 medium as described above but without the β-mercaptoethanol and ConA at 6.25×10^5 and 2×10^6 per mL in a 96 well culture plate. These cell numbers represented log phase and early stationary phase of the freshly cultured cells. As these cell lines rapidly reproduce without mitogenic stimulation, Con A was not used. A range of analogues or media alone was added in triplicate to the cultures and the cultures incubated, pulsed with MTT, harvested and their growth estimated as described above for the murine cultures. The CC50 or the concentration of drug which inhibited cell growth as estimated by MTT formazan production to 50% of that of untreated control cells was determined by linear interpolation for each lavendamycin analog.

[2] = Cytotoxicity assay (MTT), human lymphocytic cell lines, pooled data; type: cell-based; conditions: H-9 and CEM inhibited by 50%, read-out: Mean CC50 (Human Cell Lines) ± SEM (no. of expts)
Procedure: as §1

HIV-RT = target: T1, HIV-RT (Human immunodeficiency virus type 1 group M subtype B, UniProt P04585); assay: Checkerboard combination of lavendamycin analogs with AZT-triphosphate in HIV-RT enzyme assay (Chou and Talalay); type: biochemical
T1 construct: 1 unit/mL of HIV-RT (Worthington Biochemical Corp., Freehold, N.J.); purchased Worthington Biochemical Corp., Freehold, N.J
Procedure: The results were analyzed by the method of Chou and Talalay based on the median-effect principle and represented by combination indices (CI) determined for each of the two drug combinations (e.g., see: Chou, T. C.; Talalay, P. “Quantitative Analysis of Dose-Effect Relationships: The Combined Effects of Multiple Drugs or Enzyme Inhibitors,” Adv. Enzyme Regul., 1984, 22, 27-65; and Chou, J.; Chou, T. C. “Dose-Effect Analysis with Microcomputers: Quantitation of ED50, LD50, Synergism, Antagonism, Low-Dose Risk, Receptor-Ligand Binding and Enzyme Kinetics,” In: A computer Software for IBM-PC and Manual, Cambridge, UK, Elsevier-Biosoft, 1987). This method involves the plotting of dose-effect curves for each agent and for each of the different combinations of the agents. The slope of the median-effect plot, which signifies the shape of the dose-effect curve, and the x intercept of the plot, which signifies the potency of each compound alone and each combination, were then used for a computerized calculation of a combination index.
The assay procedure described below is adapted from Okada et al. (Okada, H.; Mukai, H.; Inouye, Y; Nakamura, S. “Biological Properties of Streptonigrin Derivatives II. Inhibition of Reverse Transcriptase Activity,” J. Antibiot., 1986, 39, 306-308). The lavendamycin analogs were initially dissolved in DMSO at a concentration of 1 mg/mL. Occasionally, mild sonication and heat were used to dissolve the less soluble compounds. The dissolved analogs were then serially diluted in distilled water to achieve concentrations in the final reaction mixture ranging from 0.5-15 μM. In addition to the lavendamycin analogs, the final reaction mixture contained 100 mM Tris-HCl (pH 8.0), 5 mM MgCl2, 5 mM dithiothreitol, 60 mM NaCl, 0.2 mM [^3H] thymidine triphosphate(5 μCi well), 4 μg/mL poly (rA)-oligo(dT)12-18 (Amersham Pharmacia Biotech, Piscataway, N.J.) and 1 unit/mL of HIV-RT (Worthington Biochemical Corp., Freehold, N.J.) in a total volume of 300 μL. For each assay, the reaction mixture containing 8× buffer, double distilled H2O, ^3HTTP, template-primer and HIV-RT was pre-mixed in a 15-mL sterile tube in quantities required for the particular experiment. After adding the enzyme, the reaction mixture was mixed and kept on ice. The inhibitors, either AZT(Moravek Biochemicals, Brea, Calif.), analogs or both were added to appropriate wells in a 24 well microtiter plate and ddH2O was added to each well to bring the volume of all test wells to 100 μL. Two hundred μL of the chilled reaction mixture was then added to each of the test wells, mixed, and incubated for 1 hr at 37° C. Several control wells with no inhibitors were included on each test plate. After stopping the reactions with 25 μL 0.1 M EDTA, triplicate samples of 15 μL from each test well were spotted on DE81 ion exchange filter paper squares (Whatman Paper, Maidstone, England). After drying, each filter was washed for 10 minutes three times with 5% TCA-NHPO4, three times with 0.6M NaCl-[…] Na Citrate, one time with ddH2O and one time with 95% ethanol. After drying the individual filter papers were added to 5 mL Scintiverse E (Fisher Scientific, Chicago, Ill.) scintillation fluid and the amount of 3H-TTP uptake measured as counts per minute on a Beckman liquid scintillation counter. […] The results were then analyzed using Calcusyn, a windows software program for dose effect analysis designed by T. -C. Chou and M. P. Hayball and published by Biosoft® (UK).

[3] = analogue 0.25 μM + AZT 0.007 μM, Trial 1
[4] = analogue 0.25 μM + AZT 0.007 μM, Trial 2
[5] = analogue 0.25 μM + AZT 0.01 μM, Trial 1
[6] = analogue 0.25 μM + AZT 0.01 μM, Trial 2
[7] = analogue 0.25 μM + AZT 0.02 μM, Trial 1
[8] = analogue 0.25 μM + AZT 0.02 μM, Trial 2
[9] = analogue 0.5 μM + AZT 0.007 μM, Trial 1
[10] = analogue 0.5 μM + AZT 0.007 μM, Trial 2
[11] = analogue 0.5 μM + AZT 0.01 μM, Trial 1
[12] = analogue 0.5 μM + AZT 0.01 μM, Trial 2
[13] = analogue 0.5 μM + AZT 0.02 μM, Trial 1
[14] = analogue 0.5 μM + AZT 0.02 μM, Trial 2
[15] = analogue 0.75 μM + AZT 0.01 μM, Trial 1
[16] = analogue 0.75 μM + AZT 0.01 μM, Trial 2
[17] = analogue 0.75 μM + AZT 0.02 μM, Trial 1
[18] = analogue 0.75 μM + AZT 0.02 μM, Trial 2
[19] = analogue 1.5 μM + AZT 0.007 μM, Trial 1
[20] = analogue 1.5 μM + AZT 0.007 μM, Trial 2
[21] = analogue 1.5 μM + AZT 0.01 μM, Trial 1
[22] = analogue 1.5 μM + AZT 0.01 μM, Trial 2
[23] = analogue 1.5 μM + AZT 0.02 μM, Trial 1
[24] = analogue 1.5 μM + AZT 0.02 μM, Trial 2
[25] = normal murine spleen cells stimulated with concanavalin A
[26] = human lymphocytic cell lines CCRF-CEM and H-9, pooled data

Structure (SMILES) | Combination index (HIV-RT) | Combination index (HIV-RT; [3]) | Combination index (HIV-RT; [4]) | Combination index (HIV-RT; [5]) | Combination index (HIV-RT; [6]) | Combination index (HIV-RT; [7]) | Combination index (HIV-RT; [8]) | Combination index (HIV-RT; [9]) | Combination index (HIV-RT; [10]) | Combination index (HIV-RT; [11]) | Combination index (HIV-RT; [12]) | Combination index (HIV-RT; [13]) | Combination index (HIV-RT; [14]) | Combination index (HIV-RT; [15]) | Combination index (HIV-RT; [16]) | Combination index (HIV-RT; [17]) | Combination index (HIV-RT; [19]) | Combination index (HIV-RT; [20]) | Combination index (HIV-RT; [21]) | Combination index (HIV-RT; [22]) | other results
CCCCOC(=O)c1cc2c([nH]c3ccccc32)c(-c2ccc3c(n2)C(=O)C(NC(=O)CCC)=CC3=O)n1 [Compound 12, 7-N-n-Butyryidemethyllavendamycin n-Butyl Ester] | 1.30 and 1.60 | 0.82 | 0.83 | 0.58 | 0.58 | 0.59 | 0.50 | 0.88 | 0.71 | 0.76 | 0.76 | 0.85 | 0.93 | 0.86 | 0.99 | 1.00 | 1.30 | 1.20 | 0.81 | 0.91 | CC50 at 48 h [1]: 81 ± 17 µM; CC50 at 48 h [2]: 50 ± 15 µM; Combination index (HIV-RT; [18]): 0.92; Combination index (HIV-RT; [23]): 1.10; Combination index (HIV-RT; [24]): 0.96
CC(=O)NC1=CC(=O)c2ccc(-c3nc(C(=O)OCCOP(=O)(O)O)cc4c3[nH]c3ccccc34)nc2C1=O [Compound 19] | – | – | – | – | – | – | – | – | – | – | – | – | – | 0.64 | 1.04 | – | 0.49 | 0.81 | 0.69 | 0.69 | CC50 at 48 h [1, 25]: 29 ± 5 µM; CC50 at 48 h [2, 26]: 27 ± 3 µM; Combination index (HIV-RT; analogue 0.75 μM + AZT 0.007 μM, Trial 1): 0.47; Combination index (HIV-RT; analogue 0.75 μM + AZT 0.007 μM, Trial 2): 0.68; Combination index (HIV-RT; analogue 3 μM + AZT 0.007 μM, Trial 1): 0.49; Combination index (HIV-RT; analogue 3 μM + AZT 0.007 μM, Trial 2): 0.79; Combination index (HIV-RT; analogue 3 μM + AZT 0.01 μM, Trial 1): 0.28; Combination index (HIV-RT; analogue 3 μM + AZT 0.01 μM, Trial 2): 0.56; Combination index (HIV-RT; analogue 6 μM + AZT 0.007 μM, Trial 1): 0.32; Combination index (HIV-RT; analogue 6 μM + AZT 0.007 μM, Trial 2): 0.60; Combination index (HIV-RT; analogue 6 μM + AZT 0.01 μM, Trial 1): 0.28; Combination index (HIV-RT; analogue 6 μM + AZT 0.01 μM, Trial 2): 0.75
CC(=O)NC1=CC(=O)c2ccc(-c3nc(C(=O)O)cc4c3[nH]c3ccccc34)nc2C1=O [Compound 18, 7-N-Acetyldemethyllavendamycin] | 0.66 | 0.39 | 0.37 | 0.44 | 0.45 | 0.59 | 0.60 | 0.40 | 0.42 | 0.51 | 0.50 | 0.97 | 0.98 | 0.59 | 0.57 | 0.95 | 1.00 | 0.94 | 0.90 | 0.82 | CC50 at 48 h [1, 25]: 47 ± 8.5 µM; CC50 at 48 h [2, 26]: 81 ± 35 µM; Combination index (HIV-RT; [18]): 0.97; Combination index (HIV-RT; [23]): 2.00; Combination index (HIV-RT; [24]): 2.20; combined effect with AZT-TP (HIV-RT; analogue 1.5 μM together with AZT-TP 0.02 μM): antagonism
CCCCCCCCOC(=O)c1cc2c([nH]c3ccccc32)c(-c2ccc3c(n2)C(=O)C(N)=CC3=O)n1 [Compound 20, Demethyllavendamycin n-Octyl Ester] | 0.68 and 0.66 | 0.65 | 0.61 | 0.77 | 0.77 | 0.97 | 1.00 | 0.62 | 0.61 | 0.60 | 0.61 | 0.86 | 0.88 | 0.64 | 0.63 | 0.61 | 0.83 | 0.83 | 0.70 | 0.69 | CC50 at 48 h [1]: 48 ± 10 µM; CC50 at 48 h [2]: 47 ± 14 µM; Combination index (HIV-RT; [18]): 0.64; Combination index (HIV-RT; [23]): 0.64; Combination index (HIV-RT; [24]): 0.63

Reference: patent US20060079497A1, “Lavendamycin analogues and methods of synthesizing and using lavendamycin analogues” (Ball State University, priority 2004, published 2006)
